Experimental data as given in patent US20240383905A1, “FGFR INHIBITORS AND METHODS OF USE THEREOF” (3H PHARMACEUTICALS CO., LTD., priority 2021, published 2024).

Key:
[1] = target: T1, FGFR1 (Homo sapiens, UniProt P11362); test: FGFR1 Biochemical Caliper Assay (KinEASE-TK kit); conditions: ratio FGFR1/FGFR2 of the biochemical assay
T1 construct: purchased Carna 08-133
Procedure: (§1) Compounds of the present invention were tested in a FGFR1, FGFR2, and FGFR3 Biochemical Caliper Assay. Enzyme activity was monitored using KinEASE-TK kit (CisBio, Cat.No. 62TK0PEC) according to manufacturer's instructions. […] Final enzyme concentration was 0.2 nM for FGFR1 and FGFR3, 0.07 nM for FGFR2. Compounds were prepared in 10 mM DMSO and serially diluted into 10 concentrations by 3-fold dilution. Prior to the initiation of the reaction by adding TK-substrate/ATP mixture, the compounds were incubated with protein for 10 min at RT. […] Plates were quenched by adding TK-antibody-Cryptate and Sa-XL665 mixture. After 60 min in the stop solution, read the signal on microplate reader (Molecular Devices, i3x), excitation of 320 nm and emission of 615 nm and 665 nm with a […]. IC50 values were calculated using Prism 7 (GraphPad).

[2] = target: T2, FGFR2 (Homo sapiens, UniProt P21802); test: FGFR2 Biochemical Caliper Assay (KinEASE-TK kit); conditions: 0.07 nM FGFR2; compound incubated with protein 10 min, reaction 45 min at RT; read-out: FGFR2 Cliper IC50
T2 construct: purchased Carna 08-134
T2 sequence (P21802 22-821): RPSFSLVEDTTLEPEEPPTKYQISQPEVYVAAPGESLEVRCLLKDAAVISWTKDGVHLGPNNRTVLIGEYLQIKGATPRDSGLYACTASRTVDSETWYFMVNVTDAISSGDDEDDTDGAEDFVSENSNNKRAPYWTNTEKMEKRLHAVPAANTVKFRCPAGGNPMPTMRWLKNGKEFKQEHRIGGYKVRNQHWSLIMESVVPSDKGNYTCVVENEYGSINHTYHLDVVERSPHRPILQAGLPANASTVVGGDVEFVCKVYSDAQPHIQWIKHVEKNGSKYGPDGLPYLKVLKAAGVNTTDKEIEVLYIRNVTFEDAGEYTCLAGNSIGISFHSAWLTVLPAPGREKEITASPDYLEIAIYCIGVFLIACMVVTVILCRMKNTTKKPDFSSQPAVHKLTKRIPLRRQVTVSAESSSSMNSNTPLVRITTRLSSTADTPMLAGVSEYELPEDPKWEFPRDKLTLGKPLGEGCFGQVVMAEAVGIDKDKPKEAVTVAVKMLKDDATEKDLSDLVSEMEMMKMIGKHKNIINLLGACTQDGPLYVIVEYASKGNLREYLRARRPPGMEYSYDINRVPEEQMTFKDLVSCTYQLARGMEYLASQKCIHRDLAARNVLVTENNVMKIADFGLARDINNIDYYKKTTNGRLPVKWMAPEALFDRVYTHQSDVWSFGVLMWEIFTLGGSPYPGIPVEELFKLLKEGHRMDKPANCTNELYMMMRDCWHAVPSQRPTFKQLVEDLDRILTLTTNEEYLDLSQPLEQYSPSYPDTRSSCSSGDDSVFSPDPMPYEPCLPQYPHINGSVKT
Procedure: Compounds of the present invention were tested in a FGFR1, FGFR2, and FGFR3 Biochemical Caliper Assay.
as §1, with “Enzyme” for “Compounds of the present invention were tested in a FGFR1, FGFR2, and FGFR3 Biochemical Caliper Assay. Enzyme”

[3] = target: T3, FGFR3 (Homo sapiens, UniProt P22607); test: FGFR3 Biochemical Caliper Assay (KinEASE-TK kit); conditions: ratio FGFR3/FGFR2 of the biochemical assay
T3 construct: purchased Carna 08-135
T3 sequence (P22607 23-806): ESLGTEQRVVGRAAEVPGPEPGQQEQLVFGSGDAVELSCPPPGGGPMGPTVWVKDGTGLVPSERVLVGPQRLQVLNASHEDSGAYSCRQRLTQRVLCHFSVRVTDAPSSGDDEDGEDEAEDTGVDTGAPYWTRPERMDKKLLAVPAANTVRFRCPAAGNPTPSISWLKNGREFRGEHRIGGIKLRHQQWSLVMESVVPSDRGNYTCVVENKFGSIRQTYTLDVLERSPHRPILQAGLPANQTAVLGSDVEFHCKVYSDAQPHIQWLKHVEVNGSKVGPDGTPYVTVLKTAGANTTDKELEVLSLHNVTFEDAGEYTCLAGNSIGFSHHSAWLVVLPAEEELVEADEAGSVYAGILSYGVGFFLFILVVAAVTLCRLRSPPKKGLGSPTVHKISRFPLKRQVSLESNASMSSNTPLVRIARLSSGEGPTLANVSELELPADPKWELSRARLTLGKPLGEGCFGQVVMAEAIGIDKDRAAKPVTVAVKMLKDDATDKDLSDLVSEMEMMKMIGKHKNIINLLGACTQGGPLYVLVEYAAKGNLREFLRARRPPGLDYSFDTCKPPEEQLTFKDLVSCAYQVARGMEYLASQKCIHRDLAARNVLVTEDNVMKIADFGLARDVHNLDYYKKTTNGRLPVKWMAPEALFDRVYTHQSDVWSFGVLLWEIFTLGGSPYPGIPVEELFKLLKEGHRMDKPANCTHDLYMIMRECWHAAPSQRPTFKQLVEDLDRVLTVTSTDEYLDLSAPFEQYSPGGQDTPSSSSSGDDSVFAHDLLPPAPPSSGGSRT
Procedure: as §1

[4] = test system: SNU16 cells; test: SNU16 Cancer Cell Line Proliferation Assay (CellTiter-Glo); type: cell-based; conditions: Homo sapiens, SNU-16, 72 h
Procedure: Compounds of the present invention were also tested in a SNU16 Cancer Cell Line Proliferation Assay.
SNU16 cells were plated in 96-well clear bottom/white plate(Costar, Cat.No. 3610) at 5000 cells/well in 100 μl medium. Test compounds were prepared in a 10 mM DMSO stock solution and serially diluted into 9 concentrations by 3-fold dilution. 0.5 μl of each concentration of compound was added into the cell culture plates and DMSO as a control. The plates were incubated for 72 h at 37° C. and 5% CO2 incubator. 50 μl CellTiter-Glo reagent (Promega, G7572) was added into each well and then the plates were shaken gently for 10 min at room temperature. Luminescence was read on microplate reader (Molecular Devices, i3x), IC50 values were calculated using Prism 7 (GraphPad).

T1 sequence (P11362 22-822): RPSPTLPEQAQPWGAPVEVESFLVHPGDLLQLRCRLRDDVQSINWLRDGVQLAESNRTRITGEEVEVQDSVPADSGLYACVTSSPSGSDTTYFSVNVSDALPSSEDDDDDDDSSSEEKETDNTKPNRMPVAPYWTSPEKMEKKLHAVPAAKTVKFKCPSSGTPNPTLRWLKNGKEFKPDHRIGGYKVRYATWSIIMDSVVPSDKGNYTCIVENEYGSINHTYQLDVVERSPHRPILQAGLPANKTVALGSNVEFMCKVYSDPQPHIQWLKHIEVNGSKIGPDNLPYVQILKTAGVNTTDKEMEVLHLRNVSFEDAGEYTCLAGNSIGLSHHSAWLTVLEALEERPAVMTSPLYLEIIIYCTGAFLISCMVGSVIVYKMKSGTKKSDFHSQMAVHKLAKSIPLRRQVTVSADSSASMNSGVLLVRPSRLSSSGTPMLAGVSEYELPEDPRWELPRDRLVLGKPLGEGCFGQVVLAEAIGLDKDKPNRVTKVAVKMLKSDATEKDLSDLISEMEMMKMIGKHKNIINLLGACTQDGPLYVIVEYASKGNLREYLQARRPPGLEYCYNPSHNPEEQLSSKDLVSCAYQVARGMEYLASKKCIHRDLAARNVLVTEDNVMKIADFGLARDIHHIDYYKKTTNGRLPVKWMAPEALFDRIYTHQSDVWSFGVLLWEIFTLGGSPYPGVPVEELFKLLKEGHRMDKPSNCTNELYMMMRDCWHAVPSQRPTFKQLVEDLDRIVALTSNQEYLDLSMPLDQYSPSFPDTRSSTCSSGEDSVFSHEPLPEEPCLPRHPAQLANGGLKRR

## C=C(F)C(=O)Nc1ccc(-c2nn3ncnc(N)c3c2-c2ccc(C(=O)NC34CC(F)(C3)C4)c(OC)c2)c(F)c1 [Compound 427, 4-(4-amino-6-(2-fluoro-4-(2-fluoroacryl-amido)phenyl)pyrazolo[5,1-f][1,2,4]triazin-5-yl)-N-(3-fluorobicyclo [1.1.1]pentan-1-yl)-2-methoxybenzamide]
[1]
  Selectivity FGFR1/FGFR2: A+ (Selectivity of FGFR1/FGFR2 greater or equal to 500)
[2]
  IC50: < 5 nM
[3]
  Selectivity FGFR3/FGFR2: A (Selectivity of FGFR3/FGFR2 less than 150 but greater than or equal to 100)
[4]
  IC50: ≤ 10 nM

## C=C(F)C(=O)Nc1ccc(-c2nn3ncnc(N)c3c2-c2ccc(C(=O)NC3CC(F)(F)C3)c(OC)c2)c(F)c1 [Compound 234]
[1]
  Selectivity FGFR1/FGFR2: A+ (Selectivity of FGFR1/FGFR2 greater or equal to 500)
[2]
  IC50: < 5 nM
[3]
  Selectivity FGFR3/FGFR2: A+ (Selectivity of FGFR3/FGFR2 greater or equal to 150)
[4]
  IC50: ≤ 10 nM

## C=CC(=O)Nc1ccc(-c2c(-c3ccc(Oc4ncccn4)c(F)c3)c3c(N)ncc(C#N)c3n2C)cc1 [Compound 443, N-(4-(4-amino-7-cyano-3-(3-fluoro-4-(pyrimidin-2-yloxy)phenyl)-1-methyl-1H-pyrrolo[3,2-c]pyridin-2-yl)phenyl)acrylamide]
[1]
  Selectivity FGFR1/FGFR2: C (Selectivity of FGFR1/FGFR2 less than 200 but greater than or equal to 100)
[2]
  IC50: < 5 nM
[3]
  Selectivity FGFR3/FGFR2: B (Selectivity of FGFR3/FGFR2 less than 100 but greater than or equal to 25)
[4]
  IC50: ≤ 10 nM

## C=CC(=O)Nc1ccc(-c2nn3ncnc(N)c3c2-c2ccc(C(=O)NCC3(C#N)CC3)c(OC)c2)cc1 [Compound 47, 4-(6-(4-acrylamidophenyl)-4-aminopyrazolo[5,1-f] [1,2,4]triazin-5-yl)-N-((1-cyanocyclopropyl)methyl)-2-methoxybenzamide]
[1]
  Selectivity FGFR1/FGFR2: B (Selectivity of FGFR1/FGFR2 less than 300 but greater than or equal to 200)
[2]
  IC50: < 5 nM
[3]
  Selectivity FGFR3/FGFR2: B (Selectivity of FGFR3/FGFR2 less than 100 but greater than or equal to 25)
[4]
  IC50: ≤ 10 nM

## C=C(F)C(=O)Nc1ccc(-c2nn3ncnc(N)c3c2-c2ccc(C(=O)NC3(C(F)(F)F)CC3)c(OC)c2)c(F)c1 [Compound 356]
[1]
  Selectivity FGFR1/FGFR2: A (Selectivity of FGFR1/FGFR2 less than 500 but greater than or equal to 300)
[2]
  IC50: < 5 nM
[3]
  Selectivity FGFR3/FGFR2: A (Selectivity of FGFR3/FGFR2 less than 150 but greater than or equal to 100)
[4]
  IC50: ≤ 10 nM

## C=CC(=O)Nc1ccc(-c2nn3ncnc(N)c3c2-c2ccc(Oc3cccc(C)n3)c(F)c2)cc1 [Compound 366]
[1]
  Selectivity FGFR1/FGFR2: A+ (Selectivity of FGFR1/FGFR2 greater or equal to 500)
[2]
  IC50: < 5 nM
[3]
  Selectivity FGFR3/FGFR2: A+ (Selectivity of FGFR3/FGFR2 greater or equal to 150)
[4]
  IC50: ≤ 10 nM

## C=CC(=O)Nc1ccc(-c2c(-c3ccc(C(=O)NC4CC4)c(OC)c3)c3c(N)ncc(C#N)c3n2C)c(F)c1 [Compound 157, 4-(2-(4-acrylamido-2-fluorophenyl)-4-amino-7-cyano-1-methyl-1H-pyrrolo[3,2-c]pyridin-3-yl)-N-cyclopropyl-2-methoxybenzamide]
[1]
  Selectivity FGFR1/FGFR2: B (Selectivity of FGFR1/FGFR2 less than 300 but greater than or equal to 200)
[2]
  IC50: < 5 nM
[3]
  Selectivity FGFR3/FGFR2: B (Selectivity of FGFR3/FGFR2 less than 100 but greater than or equal to 25)
[4]
  IC50: ≤ 10 nM

## C=CC(=O)Nc1ccc(-c2nn3ncnc(N)c3c2-c2ccc(C(=O)NCC(F)(F)F)c(OC)c2)cc1 [Compound 42, 4-(6-(4-acrylamidophenyl)-4-aminopyrazolo[5,1-f] [1,2,4]triazin-5-yl)-2-methoxy-N-(2,2,2-trifluoroethyl)benzamide]
[1]
  Selectivity FGFR1/FGFR2: A (Selectivity of FGFR1/FGFR2 less than 500 but greater than or equal to 300)
[2]
  IC50: < 5 nM
[3]
  Selectivity FGFR3/FGFR2: A (Selectivity of FGFR3/FGFR2 less than 150 but greater than or equal to 100)
[4]
  IC50: ≤ 10 nM
